According to US20190292179A1 (BRISTOL-MYERS SQUIBB COMPANY, priority 2016, published 2019):
Counter-ions that a name gives are not always drawn.

Assays:
HIS-TGFβR2 WT = HIS-TGFβR2 WT (Homo sapiens, UniProt P37173); assay: HTRF probe-displacement assay with HIS-TGFβR2 WT; assay type: binding; settings: 1 nM HIS-TGFβR2 WT, labeled probe at Kd, 1 hour at room temperature
Method: (§1) The reaction is incubated for 1 hour at room temperature and the HTRF signal was measured on an Envision plate reader (Ex: 340 nm; Em: 520 nm/495 nm). Inhibition data were calculated by comparison to no enzyme control reactions for 100% inhibition and vehicle-only reactions for 0% inhibition. The final concentration of reagents in the assay are 1 nM HIS-TGFβR1 T204D or HIS-TGFβR2 WT, 0.2 nM anti-HIS detection antibody, labeled small molecule probe (at Kd) and 0.5% DMSO. Dose response curves were generated to determine the concentration required inhibiting 50% of kinase activity (IC50). Compounds were dissolved at 10 mM in dimethylsulfoxide (DMSO) and evaluated at eleven concentrations. IC50 values were derived by non-linear regression analysis.

HIS-TGFβR1 T204D = target: T1, HIS-TGFβR1 T204D (Homo sapiens, UniProt P36897, T204D); assay: HTRF probe-displacement assay with HIS-TGFβR1 T204D; assay type: binding; settings: 1 nM HIS-TGFβR1 T204D, labeled probe at Kd, 1 hour at room temperature
T1 sequence (P36897 34-503 T204D): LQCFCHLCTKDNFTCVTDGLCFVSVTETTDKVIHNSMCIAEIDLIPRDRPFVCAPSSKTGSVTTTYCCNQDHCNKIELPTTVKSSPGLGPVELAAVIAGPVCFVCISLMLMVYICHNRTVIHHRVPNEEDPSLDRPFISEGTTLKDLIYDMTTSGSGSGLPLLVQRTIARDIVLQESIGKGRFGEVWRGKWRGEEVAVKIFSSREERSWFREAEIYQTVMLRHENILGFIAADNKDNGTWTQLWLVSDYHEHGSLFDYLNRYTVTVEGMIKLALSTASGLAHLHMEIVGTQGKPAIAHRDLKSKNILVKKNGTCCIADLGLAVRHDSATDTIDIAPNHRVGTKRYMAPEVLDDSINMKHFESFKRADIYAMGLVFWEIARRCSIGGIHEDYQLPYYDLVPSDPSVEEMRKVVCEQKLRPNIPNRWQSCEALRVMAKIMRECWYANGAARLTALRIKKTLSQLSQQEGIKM
Method: as §1

Chain of HIS-TGFβR2 WT (P37173 23-567): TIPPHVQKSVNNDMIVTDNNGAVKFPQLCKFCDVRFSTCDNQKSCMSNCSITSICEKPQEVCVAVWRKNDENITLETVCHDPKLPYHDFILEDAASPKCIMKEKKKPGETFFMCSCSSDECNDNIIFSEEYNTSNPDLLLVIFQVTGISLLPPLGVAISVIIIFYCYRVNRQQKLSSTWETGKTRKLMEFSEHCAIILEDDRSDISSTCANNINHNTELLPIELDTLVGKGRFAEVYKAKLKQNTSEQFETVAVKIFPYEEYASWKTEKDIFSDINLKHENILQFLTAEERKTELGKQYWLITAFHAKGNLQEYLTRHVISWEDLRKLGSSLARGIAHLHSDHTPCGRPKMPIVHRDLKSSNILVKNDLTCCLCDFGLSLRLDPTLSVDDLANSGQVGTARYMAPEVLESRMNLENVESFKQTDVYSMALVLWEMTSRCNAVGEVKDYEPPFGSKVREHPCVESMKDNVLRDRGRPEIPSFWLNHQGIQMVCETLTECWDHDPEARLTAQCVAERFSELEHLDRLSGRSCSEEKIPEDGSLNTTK

IC50 (HIS-TGFβR2 WT) [µM] | IC50 (HIS-TGFβR1 T204D) [µM] | Structure (SMILES)
12.7 | 0.502 | CC(C)(C)Nc1cnc2ccc(-c3c[nH]nc3-c3ccc(F)cc3)cn12 [Example 15, N-(tert-butyl)-6-(3-(4-fluorophenyl)-1H-pyrazol-4-yl)imidazo[1,2-a]pyridin-3-amine]
1.45 | 0.001 | Cc1cccc(-c2n[nH]cc2-c2ccc3ncc(C#N)n3n2)n1 [Example 20, 6-(3-(6-methylpyridin-2-yl)-1H-pyrazol-4-yl)imidazo[1,2-b]pyridazine-3-carbonitrile]
7.55 | 0.035 | Cc1cccc(-c2c(-c3ccc4ncc(C#N)n4c3)cnn2C2CC2)n1 [Example 22, 6-(1-cyclopropyl-5-(6-methylpyridin-2-yl)-1H-pyrazol-4-yl)imidazo[1,2-a]pyridine-3-carbonitrile]
2.48 | 0.001 | Cc1cccc(-c2nn(C)cc2-c2ccc3ncc(C#N)n3c2)n1 [Example 23, 6-(1-methyl-3-(6-methylpyridin-2-yl)-1H-pyrazol-4-yl)imidazo[1,2-a]pyridine-3-carbonitrile]
0.627 | 0.001 | Cc1cccc(-c2nn(C)cc2-c2ccc3ncc(C(N)=O)n3c2)n1 [Example 24, 6-(1-methyl-3-(6-methylpyridin-2-yl)-1H-pyrazol-4-yl)imidazo[1,2-a]pyridine-3-carboxamide]
9.74 | 0.003 | Cc1cccc(-c2nn(C)cc2-c2ccc3ncc(C#N)n3n2)n1 [Example 25, 6-(1-methyl-3-(6-methylpyridin-2-yl)-1H-pyrazol-4-yl)imidazo[1,2-b]pyridazine-3-carbonitrile]
11.4 | 0.003 | Cc1cccc(-c2nn(CC(F)F)cc2-c2ccc3ncc(C#N)n3c2)n1 [Example 27, 6-(1-(2,2-difluoroethyl)-3-(6-methylpyridin-2-yl)-1H-pyrazol-4-yl)imidazo[1,2-a]pyridine-3-carbonitrile]
0.075 | 0.001 | Cc1cccc(-c2nn(CC(F)F)cc2-c2ccc3ncc(C(N)=O)n3c2)n1 [Example 28, 6-(1-(2,2-difluoroethyl)-3-(6-methylpyridin-2-yl)-1H-pyrazol-4-yl)imidazo[1,2-a]pyridine-3-carboxamide]
1.1 | 0.003 | Fc1ccc(-c2n[nH]cc2-c2ccn3ncnc3c2)cc1 [Example 29, 7-(3-(4-fluorophenyl)-1H-pyrazol-4-yl)-[1,2,4]triazolo[1,5-a]pyridine]
10.3 | 0.591 | Fc1ccc(-c2n[nH]cc2-c2cc(F)c3nccn3c2)cc1 [Example 30, 8-fluoro-6-(3-(4-fluorophenyl)-1H-pyrazol-4-yl)imidazo[1,2-a]pyridine]
9.17 | 0.112 | Fc1ccc(-c2n[nH]cc2-c2ccc3nncn3c2)cc1 [Example 31, 6-(3-(4-fluorophenyl)-1H-pyrazol-4-yl)-[1,2,4]triazolo[4,3-a]pyridine, TFA]
7.06 | 0.811 | CC(=O)Nc1cc(-c2c[nH]nc2-c2ccc(F)cc2)cn2ccnc12 [Example 33, N-(6-(3-(4-fluorophenyl)-1H-pyrazol-4-yl)imidazo[1,2-a]pyridin-8-yl)acetamide]
5.02 | 0.014 | Fc1ccc(-c2n[nH]cc2-c2ccc3nccn3c2)cc1 [Example 34, 6-(3-(4-fluorophenyl)-1H-pyrazol-4-yl)imidazo[1,2-a]pyridine]
0.221 | 0.011 | N#Cc1cnc2ccc(-c3c[nH]nc3-c3ccc(F)cc3)cn12 [Example 35, 6-(3-(4-fluorophenyl)-1H-pyrazol-4-yl)imidazo[1,2-a]pyridine-3-carbonitrile]
0.696 | 0.002 | NC(=O)c1cnc2ccc(-c3c[nH]nc3-c3ccc(F)cc3)cn12 [Example 36, 6-(3-(4-fluorophenyl)-1H-pyrazol-4-yl)imidazo[1,2-a]pyridine-3-carboxamide]
0.165 | 0.042 | Cn1cc(-c2ccc3ncc(C#N)n3c2)c(-c2ccc(F)cc2)n1 [Example 37, 6-(3-(4-fluorophenyl)-1-methyl-1H-pyrazol-4-yl)imidazo[1,2-a]pyridine-3-carbonitrile]
1.54 | 0.002 | Cn1cc(-c2ccc3ncc(C(N)=O)n3c2)c(-c2ccc(F)cc2)n1 [Example 38, 6-(3-(4-fluorophenyl)-1-methyl-1H-pyrazol-4-yl)imidazo[1,2-a]pyridine-3-carboxamide]
1.65 | 0.004 | Fc1ccc(-c2n[nH]cc2-c2ccc3nccn3n2)cc1Cl [Example 39, 6-(3-(3-chloro-4-fluorophenyl)-1H-pyrazol-4-yl)imidazo[1,2-b]pyridazine, TFA]
4.97 | 0.003 | Fc1ccc(-c2n[nH]cc2-c2ccc3nccn3c2)cc1Cl [Example 40, 6-(3-(3-chloro-4-fluorophenyl)-1H-pyrazol-4-yl)imidazo[1,2-a]pyridine, TFA]
0.098 | 0.001 | N#Cc1cnc2ccc(-c3c[nH]nc3-c3ccc(F)c(Cl)c3)cn12 [Example 41, 6-(3-(3-chloro-4-fluorophenyl)-1H-pyrazol-4-yl)imidazo[1,2-a]pyridine-3-carbonitrile]
0.33 | 0.001 | NC(=O)c1cnc2ccc(-c3c[nH]nc3-c3ccc(F)c(Cl)c3)cn12 [Example 42, 6-(3-(3-chloro-4-fluorophenyl)-1H-pyrazol-4-yl)imidazo[1,2-a]pyridine-3-carboxamide, TFA]
0.463 | 0.001 | N#CCn1cc(-c2ccc3ncc(C#N)n3c2)c(-c2ccc(F)c(Cl)c2)n1 [Example 43, 6-(3-(3-chloro-4-fluorophenyl)-1-(cyanomethyl)-1H-pyrazol-4-yl)imidazo[1,2-a]pyridine-3-carbonitrile]
0.369 | 0.002 | N#Cc1cnc2ccc(-c3cn(CCO)nc3-c3ccc(F)c(Cl)c3)cn12 [Example 44, 6-(3-(3-chloro-4-fluorophenyl)-1-(2-hydroxyethyl)-1H-pyrazol-4-yl)imidazo[1,2-a]pyridine-3-carbonitrile]
4.23 | 0.112 | Clc1ccc(-c2n[nH]cc2-c2ccc3nccn3c2)cc1 [Example 45, 6-(3-(4-chlorophenyl)-1H-pyrazol-4-yl)imidazo[1,2-a]pyridine]
0.214 | 0.092 | N#Cc1cnc2ccc(-c3c[nH]nc3-c3ccc(Cl)cc3)cn12 [Example 46, 6-(3-(4-chlorophenyl)-1H-pyrazol-4-yl)imidazo[1,2-a]pyridine-3-carbonitrile]
0.709 | 0.004 | NC(=O)c1cnc2ccc(-c3c[nH]nc3-c3ccc(Cl)cc3)cn12 [Example 47, 6-(3-(4-chlorophenyl)-1H-pyrazol-4-yl)imidazo[1,2-a]pyridine-3-carboxamide]
4.12 | 0.002 | Cc1cc(-c2n[nH]cc2-c2ccc3nccn3c2)ccc1F [Example 48, 6-(3-(4-fluoro-3-methylphenyl)-1H-pyrazol-4-yl)imidazo[1,2-a]pyridine]
0.104 | 0.001 | Cc1cc(-c2n[nH]cc2-c2ccc3ncc(C#N)n3c2)ccc1F [Example 49, 6-(3-(4-fluoro-3-methylphenyl)-1H-pyrazol-4-yl)imidazo[1,2-a]pyridine-3-carbonitrile]
